This passage reports Kd results from PMC9512720, “Insight into the mechanism of molecular recognition between human Integrin-Linked Kinase and Cpd22 and its implication at atomic level” (Journal of Computer-Aided Molecular Design, 2022).

For orientation: Kd means the concentration at which binding is half-saturated. A high value points to a looser complex.

In the assay the target is T1, Integrin-linked kinase (ILK) (Homo sapiens, UniProt Q13418).
T1 sequence (Q13418 1-452): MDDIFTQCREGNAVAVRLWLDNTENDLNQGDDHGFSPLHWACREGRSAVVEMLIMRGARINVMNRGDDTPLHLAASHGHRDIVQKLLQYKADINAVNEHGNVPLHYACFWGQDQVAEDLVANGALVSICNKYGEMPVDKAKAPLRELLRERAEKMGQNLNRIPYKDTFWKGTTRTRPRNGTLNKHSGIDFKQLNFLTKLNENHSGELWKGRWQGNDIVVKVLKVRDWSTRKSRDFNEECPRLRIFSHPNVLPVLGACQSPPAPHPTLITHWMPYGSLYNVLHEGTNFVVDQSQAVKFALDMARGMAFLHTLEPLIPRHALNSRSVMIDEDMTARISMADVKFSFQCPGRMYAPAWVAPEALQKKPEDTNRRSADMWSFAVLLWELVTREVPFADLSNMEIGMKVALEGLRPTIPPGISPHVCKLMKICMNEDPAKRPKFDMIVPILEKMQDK
The experiment in a line: SPR (Biacore X-100, ILK immobilized on CM5 chip by amine coupling, Cpd22 […]). Type of assay: binding. (In SPR one partner is held on a chip, and binding of the other changes the refractive index at the surface.)

As to `CNC(=O)CCc1cc(-c2ccc(-c3ccc(C(F)(F)F)cc3)cc2)n(-c2ccc(N3CCNCC3)cc2)n1` [Cpd22], the Kd is ~592 µM.
